Measured values from patent EP4796530A1 (Biocells (Beijing) Biotech Co., Ltd., priority 2023, dated 2025).
Like-named read-outs stand apart in the source and are kept apart here.

Assays:
NLRP3 [1] = target: T1, NLRP3 (Mus musculus, UniProt Q8R4B8); experiment: Inhibition of canonical NLRP3 activation (LPS+ATP/Nig) in J774A.1 cells, IL-1β release by ELISA, single concentration; assay type: cell-based; design: The mouse macrophage cell line J774A.1 was used, and LPS was used as the first signal; host or cells: J774A.1 mouse monocyte-macrophage cell line
T1 sequence (Q8R4B8 whole entry): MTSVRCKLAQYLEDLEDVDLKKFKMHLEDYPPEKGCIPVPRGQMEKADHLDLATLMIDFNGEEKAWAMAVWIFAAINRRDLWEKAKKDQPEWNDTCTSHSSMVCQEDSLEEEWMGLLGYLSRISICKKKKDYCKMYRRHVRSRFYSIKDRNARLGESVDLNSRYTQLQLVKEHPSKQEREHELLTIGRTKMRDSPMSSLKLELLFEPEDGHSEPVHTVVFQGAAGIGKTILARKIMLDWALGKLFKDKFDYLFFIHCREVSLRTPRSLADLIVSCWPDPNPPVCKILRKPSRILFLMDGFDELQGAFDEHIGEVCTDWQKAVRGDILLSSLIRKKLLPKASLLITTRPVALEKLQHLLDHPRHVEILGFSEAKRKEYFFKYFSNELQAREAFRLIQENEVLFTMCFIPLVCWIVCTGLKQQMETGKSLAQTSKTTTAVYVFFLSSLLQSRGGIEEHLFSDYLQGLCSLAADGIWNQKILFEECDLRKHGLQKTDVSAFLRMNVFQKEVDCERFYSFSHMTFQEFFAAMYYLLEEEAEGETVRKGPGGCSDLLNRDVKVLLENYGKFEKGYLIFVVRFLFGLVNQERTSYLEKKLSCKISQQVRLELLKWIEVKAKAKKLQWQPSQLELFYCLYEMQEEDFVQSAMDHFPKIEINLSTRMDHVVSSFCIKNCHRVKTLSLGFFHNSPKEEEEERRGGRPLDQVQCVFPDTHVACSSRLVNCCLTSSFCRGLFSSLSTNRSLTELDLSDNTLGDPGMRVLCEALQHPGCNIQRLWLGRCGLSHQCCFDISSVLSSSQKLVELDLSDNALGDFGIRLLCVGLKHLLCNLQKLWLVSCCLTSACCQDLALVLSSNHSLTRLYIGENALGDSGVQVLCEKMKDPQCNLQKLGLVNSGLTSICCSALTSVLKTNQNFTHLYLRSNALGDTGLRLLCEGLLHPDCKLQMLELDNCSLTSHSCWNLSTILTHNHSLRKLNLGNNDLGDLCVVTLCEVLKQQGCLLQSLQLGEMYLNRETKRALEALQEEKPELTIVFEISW
Protocol: J774A.1 cells were plated in a 48-well plate at a density of 1.0×10^6 cells/mL, with 300 µL per well. Subsequently, NLRP3 was activated using LPS+5 mM ATP (adenosine triphosphate) or 10 µM Nig (nigericin). […] ATP was purchased from Sigma, Cat. No.: L2654. Nig was purchased from Shanghai Yuanye Bio-Technology Co., Ltd., Cat. No.: S45490.
Experimental groups: a negative control group, an LPS-alone incubation control group, an LPS+ATP or +Nig positive control group, and an example compound experimental group.
After the plated J774A.1 cells adhering to the plate, the culture medium was replaced. For all the groups except the negative control group, the culture medium was completely replaced with cell culture medium containing 1 µg/mL LPS. The negative control group received cell culture medium. Then, all the groups were incubated overnight. 18 h later, the culture medium was replaced again. The culture medium of the example compound experimental group was completely replaced with cell culture medium containing the compounds; while the negative control group, the LPS-alone incubation control group, and the LPS+ATP/Nig positive control group received cell culture medium. 1 h later, the culture mediums of the LPS+ATP/Nig positive control group and the example compound experimental group were completely replaced with cell culture medium containing 5 mM ATP or 10 µM Nig. 1 h later, the cell supernatants were collected for IL-1β detection.
Therefore, the relative change in the amount of IL-1β release may directly reflect NLRP3 inhibitory effect.

NLRP3 [2] = target: T1, NLRP3; experiment: Inhibition of APOE peptide-induced NLRP3 activation in J774A.1 cells, IL-1β release; assay type: cell-based; design: The mouse macrophage cell line J774A.1 was used, and LPS was used as the first signal; host or cells: J774A.1 mouse monocyte-macrophage cell line; conditions: J774.A1, 10 µM compound, 30 µg/mL APOE peptide
Protocol: J774A.1 cells were plated in a 48-well plate at a density of 1.0×10^6 cells/mL, with 300 µL per well. Subsequently, NLRP3 was activated by APOE peptide. The cell culture medium comprises: DMEM (brand: Gibco, Cat. No.: C12430500) + 10% fetal bovine serum (brand: Gibco, Cat. No.: 10099-141) + 1% sodium pyruvate (brand: Gibco, Cat. No.: 11360-070) + 1% penicillin-streptomycin solution (brand: Solarbio, Cat. No.: P1400). The J774A.1 mouse monocyte-macrophage cell line was purchased from the Cell Resource Center of the Institute of Basic Medical Sciences of Chinese Academy of Medical Sciences (Resource No. 1101MOU-PUMC000222). APOE2/3 peptide 1-151 was obtained through recombinant protein expression and purification by Biocells (Beijing) Biotech Co., Ltd. The procedures were as follows: the sequence (SEQ ID NO: 1) shown below was inserted into the pET-28A plasmid and transformed into BL-21(DE3) expression strain; the expression of target protein was induced with IPTG at a low temperature; after collecting the bacteria via centrifugation, ultrasonic disruption was performed; and after centrifugation, the supernatant was purified by nickel ion affinity chromatography (AKTA pure), and then the product was concentrated by ultrafiltration and identified by BCA+protein electrophoresis. Sequence: [formula]
Experimental groups: a negative control group, an APOE treatment control group, and an example compound experimental group.
After the plated J774A.1 cells adhering to the plate, the culture medium was replaced. The culture medium of the APOE treatment control group was replaced with cell culture medium containing 30 µg/mL APOE peptide, the culture medium of the example compound experimental group was replaced with culture medium containing 30 µg/mL APOE peptide combined with the compounds, and the negative control group received cell culture medium. Then, all the groups were incubated overnight. 18 h later, the cell supernatants were collected for IL-1β detection.
Activation of NLRP3 by APOE peptide will result in release of mature IL-1β, and the release can be inhibited by NLRP3 inhibitors. Therefore, the relative change in the amount of IL-1β release may directly reflect NLRP3 inhibitory effect.
In this experimental example, effective inhibition refers to a reduction of 70% or more in the release amount, compared with the release amount of the positive control minus the negative control.

[3] = Mouse pharmacokinetics after intravenous administration (plasma and brain, LC-MS); assay type: in vivo; conditions: C57 mice, intravenous 5 mg/kg
Protocol: C57 mice were administered intravenously, at a dosage concentration of 5 mg/kg in each group. Retro-orbital blood collection was performed on the mice at 1 min, 30 min, 1 h, and 2 h post-dosing. The collected blood was centrifuged at 3000 rpm for 10 min at 4 °C to obtain plasma. Acetonitrile was added at a 1:3 volume ratio of plasma: acetonitrile to precipitate proteins. After centrifugation, the supernatant was collected and filtered. The concentration of the compound was detected using LC-MS (Agilent 1260-G6125, SIM mode). In addition, 2 h after drug injection, the mice were subjected to cardiac perfusion and then their brains were harvested. Following tissue homogenization and centrifugation, the supernatant was collected. Acetonitrile was added at a 1:3 volume ratio of supernatant: acetonitrile to precipitate proteins. After centrifugation, the supernatant was collected and filtered. The concentration of the compound was detected using LC-MS (Agilent 1260-G6125, SIM mode).
Experimental groups: a vehicle control group, and a dosing group.

[4] = J774.A1, 1 µM compound, LPS + 5 mM ATP or 10 µM Nig, compared with the positive control, read-out: inhibition of IL-1β release

Row | SMILES | inhibition at 1 µM (NLRP3 [1]; [4]) [%] | inhibition at 10 µM (NLRP3 [2]) [%] | further results
1 | CN(C)Cc1ccc(F)c(S(=O)(=O)NC(=O)Nc2c3c(cc4c2CCC4)CCC3)c1 [Example 2, 5-((dimethylamino)methyl)-2-fluoro-N-((1,2,3,5,6,7-hexahydro-s-indacen-4-yl)carbamoyl)benzenesulfonamide] | > 80 | – | –
2 | CN(C)Cc1cc(S(=O)(=O)NC(=O)Nc2c3c(cc4c2CCC4)CCC3)ccc1OCc1ccccc1 [Example 4] | – | – | inhibition at 1 µM (NLRP3 [1]; J774.A1, read-out: inhibition of IL-1β release, 1 µM compound, LPS + 5 mM ATP or 10 µM Nig, compared with the positive control): > 80%
3 | CN(C)Cc1cc(S(=O)(=O)NC(=O)Nc2c3c(cc4c2CCC4)CCC3)ccc1F [Example 6, 3-((dimethylamino)methyl)-4-fluoro-N-((1,2,3,5,6,7-hexahydro-s-indacen-4-yl)carbamoyl)benzenesulfonamide] | > 80 | – | –
4 | CN(C)Cc1cc(S(=O)(=O)NC(=O)Nc2c3c(cc4c2CCC4)CCC3)ccc1N [Example 7, 4-amino-3-((dimethylamino)methyl)-N-((1,2,3,5,6,7-hexahydro-s-indacen-4-yl)carbamoyl)benzenesulfonamide] | > 80 | – | –
5 | CN(C)Cc1cc(S(=O)(=O)NC(=O)Nc2c3c(cc4c2CCC4)CCC3)ccc1Cl [Example 8, 4-chloro-3-((dimethylamino)methyl)-N-((1,2,3,5,6,7-hexahydro-s-indacen-4-yl)carbamoyl)benzenesulfonamide] | 20 to 80 | – | –
6 | CN(C)Cc1cc(S(=O)(=O)NC(=O)Nc2c3c(cc4c2CCC4)CCC3)ccc1OC(F)(F)F [Example 9, 3-((dimethylamino)methyl)-N-((1,2,3,5,6,7-hexahydro-s-indacen-4-yl)carbamoyl)-4-(trifluoromethoxy)benzenesulfonamide] | 20 to 80 | – | –
7 | CN(C)Cc1ccc(Cl)c(S(=O)(=O)NC(=O)Nc2c3c(cc4c2CCC4)CCC3)c1 [Example 10, 2-chloro-5-((dimethylamino)methyl)-N-((1,2,3,5,6,7-hexahydro-s-indacen-4-yl)carbamoyl)benzenesulfonamide] | > 80 | – | –
8 | CN(C)Cc1ccc([N+](=O)[O-])c(S(=O)(=O)NC(=O)Nc2c3c(cc4c2CCC4)CCC3)c1 [Example 11, 5-((dimethylamino)methyl)-N-((1,2,3,5,6,7-hexahydro-s-indacen-4-yl)carbamoyl)-2-nitrobenzenesulfonamide] | > 80 | – | –
9 | CN(C)Cc1ccc(N)c(S(=O)(=O)NC(=O)Nc2c3c(cc4c2CCC4)CCC3)c1 [Example 12, 2-amino-5-((dimethylamino)methyl)-N-((1,2,3,5,6,7-hexahydro-s-indacen-4-yl)carbamoyl)benzenesulfonamide] | 20 to 80 | – | –
10 | CCN(CC)Cc1cc(S(=O)(=O)NC(=O)Nc2c3c(cc4c2CCC4)CCC3)ccc1OC [Example 13] | – | – | inhibition of IL-1β release (NLRP3 [1]; 1 µM compound, LPS + 5 mM ATP or 10 µM Nig, compared with the positive control): no inhibitory effect
11 | CCOc1ccc(S(=O)(=O)NC(=O)Nc2c3c(cc4c2CCC4)CCC3)cc1CN(C)C [Example 14, 3-((dimethylamino)methyl)-4-ethoxy-N-((1,2,3,5,6,7-hexahydro-s-indacen-4-yl)carbamoyl)benzenesulfonamide] | > 80 | ≥ 70 | –
12 | CC(C)Oc1ccc(S(=O)(=O)NC(=O)Nc2c3c(cc4c2CCC4)CCC3)cc1CN(C)C [Example 15, 3-((dimethylamino)methyl)-N-((1,2,3,5,6,7-hexahydro-s-indacen-4-yl)carbamoyl)-4-isopropoxybenzenesulfonamide] | > 80 | – | –
13 | COc1c(F)cc(S(=O)(=O)NC(=O)Nc2c3c(cc4c2CCC4)CCC3)cc1CN(C)C [Example 16, 3-((dimethylamino)methyl)-5-fluoro-N-((1,2,3,5,6,7-hexahydro-s-indacen-4-yl)carbamoyl)-4-methoxybenzenesulfonamide] | 20 to 80 | – | –
14 | CN(C)Cc1cccc(S(=O)(=O)NC(=O)Nc2c3c(cc4c2CCC4)CCC3)c1[N+](=O)[O-] [Example 18, 3-((dimethylamino)methyl)-N-((1,2,3,5,6,7-hexahydro-s-indacen-4-yl)carbamoyl)-2-nitrobenzenesulfonamide] | > 80 | ≥ 70 | –
15 | COc1cc(F)c(S(=O)(=O)NC(=O)Nc2c3c(cc4c2CCC4)CCC3)cc1CN(C)C [Example 20, 5-((dimethylamino)methyl)-2-fluoro-N-((1,2,3,5,6,7-hexahydro-s-indacen-4-yl)carbamoyl)-4-methoxybenzenesulfonamide] | > 80 | ≥ 70 | –
16 | CN(C)Cc1c(F)ccc(S(=O)(=O)NC(=O)Nc2c3c(cc4c2CCC4)CCC3)c1F [Example 23, 3-((dimethylamino)methyl)-2,4-difluoro-N-((1,2,3,5,6,7-hexahydro-s-indacen-4-yl)carbamoyl)benzenesulfonamide] | > 80 | ≥ 70 | –
17 | CN(C)Cc1cccc(S(=O)(=O)NC(=O)Nc2c3c(cc4c2CCC4)CCC3)c1F [Example 24, 3-((dimethylamino)methyl)-2-fluoro-N-((1,2,3,5,6,7-hexahydro-s-indacen-4-yl)carbamoyl)benzenesulfonamide] | > 80 | ≥ 70 | –
18 | CN(C)Cc1ccc(F)c(S(=O)(=O)NC(=O)Nc2c3c(cc4c2CCC4)CCC3)c1F [Example 25, 3-((dimethylamino)methyl)-2,6-difluoro-N-((1,2,3,5,6,7-hexahydro-s-indacen-4-yl)carbamoyl)benzenesulfonamide] | > 80 | ≥ 70 | –
19 | COc1ccc(S(=O)(=O)NC(=O)Nc2c3c(cc4c2CCC4)CCC3)c(Cl)c1CN(C)C [Example 28, 2-chloro-3-((dimethylamino)methyl)-N-((1,2,3,5,6,7-hexahydro-s-indacen-4-yl)carbamoyl)-4-methoxybenzenesulfonamide] | > 80 | – | –
20 | CN1CCc2ccc(S(=O)(=O)NC(=O)Nc3c4c(cc5c3CCC5)CCC4)cc2C1 [Example 29, N-((1,2,3,5,6,7-hexahydro-s-indacen-4-yl)carbamoyl)-2-methyl-1,2,3,4-tetrahydroisoquinoline-7-sulfonamide] | – | – | concentration at 120 min ([3]; brain after cardiac perfusion, read-out: brain drug concentration at 120 min): 197 ng/mL; half-life ([3]; plasma): 1.65 h; AUC ([3]; plasma, read-out: area under the curve (AUC) from 1 to 120 min): 14900 ng·h/mL
